Experimental data from ChEMBL document CHEMBL1201862, “PubChem BioAssay data set” (2004).
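Results reflect a 48-hour exposure of cells in 96-well plates to compound at five concentrations. At the GI50, growth is halved.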 Calls of active or inactive are those of the source. Rule as the data show it: active = GI50 up to about 1.1 µM and inactive = higher.

Assays:
Experiment in all cases: NCI anticancer screen, dose series, 48 h
[1] = system: K562
[2] = system: EKVX
[3] = system: NCI/ADR-RES
[4] = system: OVCAR-5
[5] = system: DU-145
[6] = system: UO-31
[7] = system: MDA-MB-435
[8] = system: IGROV-1
[9] = system: Hs-578T
[10] = system: UACC-257
[11] = system: M14
[12] = system: MDA-MB-231
[13] = system: NCI-H522
[14] = system: MOLT-4
[15] = system: SNB-75
[16] = system: NCI-H23
[17] = system: CCRF-CEM
[18] = system: SF-268
[19] = system: A498
[20] = system: OVCAR-4

Row | SMILES | GI50 [1] | GI50 [2] | GI50 [3] | GI50 [4] | GI50 [5] | GI50 [6] | GI50 [7] | GI50 [8] | GI50 [9] | GI50 [10] | GI50 [11] | GI50 [12] | GI50 [13] | GI50 [14] | GI50 [15] | GI50 [16] | GI50 [17] | GI50 [18] | GI50 [19] | GI50 [20]
1 | C1=CC2C=CC(C=C1)P2c1ccccc1 (stereo not given) | > 100 µM (inactive) | > 100 µM (inactive) | > 100 µM (inactive) | > 100 µM (inactive) | > 100 µM (inactive) | > 100 µM (inactive) | > 100 µM (inactive) | > 100 µM (inactive) | > 100 µM (inactive) | > 100 µM (inactive) | > 100 µM (inactive) | > 100 µM (inactive) | > 100 µM (inactive) | > 100 µM (inactive) | > 100 µM (inactive) | > 100 µM (inactive) | > 100 µM (inactive) | > 100 µM (inactive) | > 100 µM (inactive) | > 100 µM (inactive)
2 | O=C(/C(=C/c1cccs1)c1ccccc1)c1ccccc1 | > 100 µM (inactive) | > 100 µM (inactive) | > 100 µM (inactive) | > 100 µM (inactive) | > 100 µM (inactive) | > 100 µM (inactive) | > 100 µM (inactive) | > 100 µM (inactive) | > 100 µM (inactive) | > 100 µM (inactive) | > 100 µM (inactive) | 23.4 µM (inactive) | 53.7 µM (inactive) | 82.4 µM (inactive) | 37.7 µM (inactive) | 76.6 µM (inactive) | > 100 µM (inactive) | > 100 µM (inactive) | > 100 µM (inactive) | 35.2 µM (inactive)
3 | CN(C)CCCn1nc(N)c2nc3cc(Cl)ccc3nc21 | > 76.2 µM (inactive) | > 66.5 µM (inactive) | 71.8 µM (inactive) | 40.4 µM (inactive) | 54.8 µM (inactive) | 28.6 µM (inactive) | 34 µM (inactive) | 22.9 µM (inactive) | 41.4 µM (inactive) | 24.5 µM (inactive) | 20.7 µM (inactive) | 58.3 µM (inactive) | 61.9 µM (inactive) | > 50.4 µM (inactive) | 67.8 µM (inactive) | 81.8 µM (inactive) | 31 µM (inactive) | 58.1 µM (inactive) | 52.1 µM (inactive) | > 100 µM (inactive)
4 | CC(C)(C)C(=O)C(CC(=O)c1ccccc1)C(=O)C(C)(C)C | > 100 µM (inactive) | > 100 µM (inactive) | > 100 µM (inactive) | > 100 µM (inactive) | > 100 µM (inactive) | > 100 µM (inactive) | > 100 µM (inactive) | > 100 µM (inactive) | 77.3 µM (inactive) | > 100 µM (inactive) | > 100 µM (inactive) | > 100 µM (inactive) | > 100 µM (inactive) | > 100 µM (inactive) | 15.3 µM (inactive) | > 100 µM (inactive) | > 100 µM (inactive) | 83.9 µM (inactive) | > 100 µM (inactive) | > 100 µM (inactive)
5 | COc1cc2nc3c(=C(C#N)C#N)c4ccccc4n3c(=O)c2cc1OC | > 100 µM (inactive) | > 100 µM (inactive) | > 100 µM (inactive) | > 100 µM (inactive) | > 100 µM (inactive) | > 100 µM (inactive) | > 100 µM (inactive) | > 100 µM (inactive) | 44.3 µM (inactive) | > 100 µM (inactive) | > 100 µM (inactive) | > 100 µM (inactive) | > 100 µM (inactive) | > 100 µM (inactive) | 41.6 µM (inactive) | > 100 µM (inactive) | 32.4 µM (inactive) | 75.7 µM (inactive) | > 100 µM (inactive) | > 100 µM (inactive)
6 | CC1(C)OC[C@@H](/C=C\CCO[Si](c2ccccc2)(c2ccccc2)C(C)(C)C)N1C(=O)c1ccccc1 | 3.1 µM (inactive) | 5.75 µM (inactive) | 9.14 µM (inactive) | 16.3 µM (inactive) | 18.8 µM (inactive) | 11.9 µM (inactive) | 13.2 µM (inactive) | 28.6 µM (inactive) | 12.5 µM (inactive) | 3.49 µM (inactive) | 7.08 µM (inactive) | 10.9 µM (inactive) | 3.61 µM (inactive) | 3.13 µM (inactive) | > 100 µM (inactive) | 4.61 µM (inactive) | 6.21 µM (inactive) | 13.9 µM (inactive) | 13.9 µM (inactive) | 7.76 µM (inactive)
7 | Clc1ccc(C2=NNC(c3cccc(Cl)c3)C2)cc1 (stereo not given) | 37.4 µM (inactive) | 23.4 µM (inactive) | 26.5 µM (inactive) | 44.8 µM (inactive) | 36.9 µM (inactive) | 1.9 µM (inactive) | 17.9 µM (inactive) | 0.344 µM (active) | 28.8 µM (inactive) | 32.3 µM (inactive) | 53.7 µM (inactive) | 18.7 µM (inactive) | 2.98 µM (inactive) | 27.1 µM (inactive) | 26.8 µM (inactive) | 25.8 µM (inactive) | 29 µM (inactive) | 29.3 µM (inactive) | 20 µM (inactive) | 32.8 µM (inactive)
8 | Cc1ccc(/N=N/c2ccc(O)c(CN(C)C)c2)cc1 | 20 µM (inactive) | 22.6 µM (inactive) | 22.6 µM (inactive) | 14.4 µM (inactive) | 17.8 µM (inactive) | 16 µM (inactive) | 17.3 µM (inactive) | 15.1 µM (inactive) | 18.5 µM (inactive) | 17.8 µM (inactive) | 21.9 µM (inactive) | 20.6 µM (inactive) | 16.7 µM (inactive) | 19.2 µM (inactive) | 21.6 µM (inactive) | 36.1 µM (inactive) | 22.8 µM (inactive) | 20.2 µM (inactive) | 19.1 µM (inactive) | 22.6 µM (inactive)
9 | Cc1ccc(O)c(-c2csc(NCN3CCN(CNc4nc(-c5cc(C)ccc5O)cs4)CC3)n2)c1 | > 100 µM (inactive) | > 100 µM (inactive) | > 100 µM (inactive) | > 100 µM (inactive) | > 100 µM (inactive) | > 100 µM (inactive) | > 100 µM (inactive) | > 100 µM (inactive) | > 100 µM (inactive) | > 100 µM (inactive) | > 100 µM (inactive) | > 100 µM (inactive) | > 100 µM (inactive) | 15.2 µM (inactive) | > 100 µM (inactive) | > 100 µM (inactive) | 20.5 µM (inactive) | > 100 µM (inactive) | > 100 µM (inactive) | > 100 µM (inactive)
10 | COc1ccc(C(C)NNC(=O)c2ccncc2)c(OC)c1 (stereo not given) | 93.1 µM (inactive) | > 100 µM (inactive) | > 100 µM (inactive) | > 100 µM (inactive) | > 100 µM (inactive) | > 100 µM (inactive) | > 100 µM (inactive) | > 100 µM (inactive) | > 100 µM (inactive) | > 100 µM (inactive) | > 100 µM (inactive) | > 100 µM (inactive) | > 100 µM (inactive) | > 100 µM (inactive) | > 100 µM (inactive) | > 100 µM (inactive) | > 100 µM (inactive) | > 100 µM (inactive) | > 100 µM (inactive) | > 100 µM (inactive)
11 | CCO/N=C\c1ccc2oc(-c3ccccc3)cc(=O)c2c1 | 0.034 µM (active) | 3.03 µM (inactive) | 0.0501 µM (active) | 2.56 µM (inactive) | 0.502 µM (active) | 0.394 µM (active) | 0.0133 µM (active) | 0.24 µM (active) | 0.402 µM (active) | 18.3 µM (inactive) | 0.172 µM (active) | 0.557 µM (active) | 0.0247 µM (active) | 0.121 µM (active) | 0.219 µM (active) | 0.476 µM (active) | 0.228 µM (active) | 0.74 µM (active) | 0.312 µM (active) | 5.51 µM (inactive)
12 | N=C(N)c1ccc(/N=N\c2c(O)c(C(=O)Nc3ccccc3)cc3ccccc23)cc1 | 7.08 µM (inactive) | 17 µM (inactive) | > 100 µM (inactive) | 31.6 µM (inactive) | > 100 µM (inactive) | 75.5 µM (inactive) | 41.5 µM (inactive) | 18.7 µM (inactive) | 27.3 µM (inactive) | > 68.7 µM (inactive) | > 71.4 µM (inactive) | 8.04 µM (inactive) | 10.1 µM (inactive) | 2.58 µM (inactive) | 12.9 µM (inactive) | 21.9 µM (inactive) | 2.33 µM (inactive) | 19.9 µM (inactive) | > 100 µM (inactive) | 17.8 µM (inactive)
13 | CC1(C)O[C@@H](CBr)C[C@H](C[C@H]2C[C@@H](O)C[C@@H](CCOCc3ccccc3)O2)O1 | 40.2 µM (inactive) | 17.8 µM (inactive) | 18.7 µM (inactive) | 18.7 µM (inactive) | 25.4 µM (inactive) | 20.7 µM (inactive) | 23.5 µM (inactive) | 19.8 µM (inactive) | 25.6 µM (inactive) | 19 µM (inactive) | 23.5 µM (inactive) | 40.3 µM (inactive) | 16.4 µM (inactive) | 47.1 µM (inactive) | 20.5 µM (inactive) | 16.3 µM (inactive) | 47.3 µM (inactive) | 22 µM (inactive) | 23 µM (inactive) | 21.6 µM (inactive)
14 | CC1=NN(C(=O)CC(=O)Nc2cccc(C)c2)C(=O)C1/N=N\c1ccc(S(=O)(=O)c2ccc(/N=N/C3C(=O)N(C(=O)CC(=O)Nc4cccc(C)c4)N=C3C)cc2)cc1 (stereo not given) | > 100 µM (inactive) | > 100 µM (inactive) | > 100 µM (inactive) | > 100 µM (inactive) | > 100 µM (inactive) | > 100 µM (inactive) | > 100 µM (inactive) | > 100 µM (inactive) | > 100 µM (inactive) | > 100 µM (inactive) | > 100 µM (inactive) | > 100 µM (inactive) | > 100 µM (inactive) | > 100 µM (inactive) | > 100 µM (inactive) | > 100 µM (inactive) | > 100 µM (inactive) | > 100 µM (inactive) | > 100 µM (inactive) | > 100 µM (inactive)
